Data reported in patent publication US10980866B2, “Alpha-1 anti-trypsin for treating liver diseases” (Hadasit Medical Research Services and Development Ltd., priority 2014, dated 2021).
Entries after “also recorded” stand apart in the source; their conditions may differ.

Legend:
[1] = system: ConA-induced hepatitis mouse model; assay: Concanavalin A-induced hepatitis model, liver histology score (H&E); format: in vivo, mice (C57BL/6); conditions: 15 hours following ConA; for Infiltrating leukocytes (%) / Lymphocyte adhesion (%) / Necrotic lesions (%): histological score, mean ± SD, AAT 0.35 mg/mouse IP, Dexamethasone 0.35 mg/mouse
Description: (§1) Animals—Male C57BL/6 mice (11-12 weeks old) were obtained from Harlan Laboratories (Jerusalem, Israel) and were maintained in the Animal Core of the Hadassah-Hebrew University Medical School. The mice received standard laboratory food and water ad libitum and were housed in a 12-hour light/dark cycle. All animal experiments were performed according to the guidelines and with the approval of the Hebrew University-Hadassah Institutional Committee for the Care and Use of Laboratory Animals.
(§2) Concanavalin A-induced hepatitis model—Concanavalin A (ConA, MP Biomedicals, USA) was dissolved in a solution consisting of 50 mM Tris pH 7, 150 mM NaCl, and 4 mM CaCl2 and injected into the tail vein at a dose of 500 μg/mouse (15 mg/kg) in 250 μl. Mice were sacrificed 15 hours following ConA injection. Mice (n=5-6 mice per group) were administered orally or intraperitoneally (IP), as indicated, DDW (control); Dexamethasone (0.35 mg/mouse, control); or alpha-1 anti-trypsin (AAT, Sigma A-9024) at a dose of 0.2, 0.35, 1.0 or 2.0 mg per mouse, 2 hours prior ConA treatment.
Histology—Mice were sacrificed at the indicated times and their livers were harvested. Paraffin-embedded liver sections were prepared from and sliced into 4-5 μm-thick sections and stained with hematoxylin-eosin (H&E). The sections were scored according to the extent of liver damage using a previously described method^13, 14 with the following parameters: lymphocyte adhesion to hepatic and portal veins and sinusoids, the number of infiltrating leukocytes into the liver parenchyma, and the number of necrotic lesions (all per 10× high-power field).

[2] = system: ConA-induced hepatitis mouse model; assay: Concanavalin A-induced hepatitis model, serum liver enzymes (ALT, AST); format: in vivo, mice (C57BL/6)
Description: as §1, §2
(§3) Assessment of Liver toxicity—Serum was obtained from individual mice at the indicated times and the levels of aspartate aminotransferase (AST) and alanine aminotransferase (ALT) were determined using a standard automated analyzer.

[3] = system: ConA-induced hepatitis mouse model; assay: Concanavalin A-induced hepatitis model, serum IFN-γ by ELISA; format: in vivo, mice (C57BL/6); conditions: 15 hours following ConA
Description: as §1, §2
Cytokine measurement—Serum IFN-γ levels were measured at the indicated times in each animal using a commercially available ELISA kit (Quantikine, R&D Systems, MN, USA) according to manufacturer's instructions.

[4] = system: APAP-mediated liver damage mouse model; assay: Acetaminophen-mediated hepatotoxicity model, serum liver enzymes; format: in vivo, mice (C57BL/6); conditions: 2 hours following APAP, 24 hours following APAP, vs control (DDW)
Description: as §1
Acetaminophen-mediated hepatotoxicity model—Acetaminophen (APAP)-mediated hepatotoxicity was induced in mice via oral administration of 4 mg APAP (Tiptipot, CST). Mice (n=5 mice per group) were administered IP DDW (control) or AAT at a dose of 0.25 or 0.5 mg per mouse, 2 hours following administration of APAP
as §3

[5] = system: high fat diet (HFD) mouse model; assay: High fat diet (HFD) with or without methionine choline deficient diet (MCD) fatty liver model; format: in vivo, mice (C57Bl); conditions: Example 3
Description: The effect of AAT on fatty liver disease is assessed by determining liver toxicity in a high fat diet (HFD) with or without methionine choline deficient diet (MCD) mouse model.
Blood is taken from the tail vein at the indicated time points and analyzed for:
Mice are sacrificed 14 weeks following beginning of treatment and analyzed for: • Weight • Epididymal fat weight (eq to visceral fat in humans) • MRI—to look at steatosis • ALT, AST • Serum for cytokines-what cytokines: IL2, 6, 4, 5, 12, IFN (gamma), TNF and TGF. IL-10, il-4, il-13, mcp1, • Adipokine—adiponectin which is anti-inflammatory adipokine and visfalatin • CBC including eosinophils • FACS for subsets of T cells • Assessment of eotaxin levels in the liver and in the adipose tissue by mRNA • Collect serum for Lipidomics to be conducted by OWL in Spain • Collect serum for mRNA of lymphocytes, to be performed in the USA by Ilumina sequencing machines • Liver fat quantification • Liver biopsy followed by histological evaluation: • 1. H&E staining • 2. Fat staining (IHC): Oil-R-O (frozen sections) • X2 non stained slides (paraffin embedded) • Snap freeze −80, ×3 samples (from each animal). • Assessment of fibrosis based on staining

[6] = molecular target: 1-AZT, a misfolded but functionally active mutant of α1-antitrypsin (Homo sapiens, UniProt P01009, E366K); conditions: model cell culture system; cited from earlier work
[7] = AAT orally administered, 2 hours prior ConA, 15 hours following ConA

1-AZT, a misfolded but functionally active mutant of α1-antitrypsin, sequence (P01009 25-418 E366K): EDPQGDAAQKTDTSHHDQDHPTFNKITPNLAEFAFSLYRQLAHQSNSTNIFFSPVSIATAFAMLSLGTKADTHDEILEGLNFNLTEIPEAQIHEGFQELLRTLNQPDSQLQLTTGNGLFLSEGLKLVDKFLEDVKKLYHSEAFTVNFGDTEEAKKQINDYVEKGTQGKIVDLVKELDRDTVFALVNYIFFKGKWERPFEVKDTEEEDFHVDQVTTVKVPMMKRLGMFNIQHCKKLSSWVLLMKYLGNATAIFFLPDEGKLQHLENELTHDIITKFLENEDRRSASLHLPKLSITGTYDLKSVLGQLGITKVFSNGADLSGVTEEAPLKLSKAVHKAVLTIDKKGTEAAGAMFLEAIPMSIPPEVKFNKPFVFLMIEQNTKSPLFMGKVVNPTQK

| Compound | Infiltrating leukocytes (%) [1] | Lymphocyte adhesion (%) [1] | Necrotic lesions (%) [1] | serum levels of the ALT liver enzyme ([2]; AAT 0.35 mg per mouse IP, 2 hours prior ConA, 15 hours following ConA, p<0.005) | mice developing severe disease (severe hepatitis, serum ALT more than 1000 IU) ([2]; AAT 0.35 mg per mouse, compared to 100% in control (DDW) group, p<0.005) | serum levels of the ALT liver enzyme ([2]; AAT 1 mg per mouse IP, 2 hours prior ConA, 15 hours following ConA, p<0.005) | ALT serum levels ([2]; AAT 2 mg per mouse IP, 2 hours prior ConA, 15 hours following ConA) | AST levels ([2]; AAT IP, 2 hours prior ConA, 15 hours following ConA (FIG. 2)) | number of mice developing severe disease (serum ALT more than 1000 IU) ([2]; AAT at all doses tested) | ALT levels [2, 7] | AST levels [2, 7] | overall effect on the ConA-induced hepatitis model ([2]; IP administration of AAT) | serum IFNγ levels ([3]; AAT 1.0 mg per mouse IP, p<0.005) | serum IFNγ levels ([3]; AAT high dose 2.0 mg per mouse) | serum IFNγ levels ([3]; AAT low dose 0.35 mg per mouse) | number of infiltrating leukocytes into the liver parenchyma (in words) ([1]; AAT 0.35 mg per mouse IP) | serum levels of the AST liver enzyme ([4]; AAT 0.25 mg per mouse IP) | serum levels of the AST liver enzyme ([4]; AAT 0.5 mg per mouse IP) | symptoms of fatty liver disease [5] | secretion of 1-AZT [6] |
| --- | --- | --- | --- | --- | --- | --- | --- | --- | --- | --- | --- | --- | --- | --- | --- | --- | --- | --- | --- | --- |
| C[C@@H]1C[C@H]2[C@@H]3CCC4=CC(=O)C=C[C@]4(C)[C@@]3(F)[C@@H](O)C[C@]2(C)[C@@]1(O)C(=O)CO [Dexamethasone, reference compound] | 0.58 ± 2.5% | 0.58 ± 2.5% | 0% | – | – | – | – | – | – | – | – | – | – | – | – | – | – | – | – | – |
| alpha-1 anti-trypsin [AAT] | 2.45 ± 8.33% | 2.8 ± 11.89% | 1 ± 1.67% | Statistically significant reduction | 50% | Statistically significant reduction | no effect | corresponded to the ALT levels | reduced the number of mice developing severe disease | no effect | no effect | dose-dependent beneficial effect | significant reduction | no significant effect | no significant effect | significant improvement; also recorded: reduced leukocyte infiltration | decrease | decrease | ameliorated symptoms of fatty liver disease | – |
| O=C(O)CCCc1ccccc1 [PBA, 4-phenylbutyric acid] | – | – | – | – | – | – | – | – | – | – | – | – | – | – | – | – | – | – | – | marked increase |
